3 compounds from article PMC11052316, “New Transferrin Receptor-Targeted Peptide–Doxorubicin Conjugates: Synthesis and In Vitro Antitumor Activity” (Molecules, 2024) can be followed below.

By cell viability is commonly meant a read-out of living cells in per cent, often relative to untreated cells. A lower cell viability goes with more harm to the cells. In general, IC50 refers to the point on the concentration scale where inhibition reaches its midpoint. A low value points to greater potency.

Data set [1] can be described thus: Reduction-triggered degradation / drug release by GSH. The format is physicochemical. Conditions: 37 °C; for remaining at 1 h, 100 µM: read-out: conjugate remained undegraded; for t1/2 of degradation in 5 mM GSH: intact conjugate by HPLC, mean ± SD. The procedure: A stock solution of ^LT7-SS-DOX or ^DT7-SS-DOX was diluted by adding 5 mM or 5 μM GSH dissolved in acetonitrile-PBS (3:7, v/v) to a final volume of 800 μL with 100 μM conjugate, and the mixture was incubated at 37 °C. Aliquots (100 μL) were taken from the incubation solution at scheduled time intervals and diluted with acetonitrile–PBS (3:7, v/v, 200 μL). After filtration, the intact conjugate that remained in the sample was analyzed by HPLC.

The nature of data set [2]: In vitro stability of conjugates in mouse serum. The format is in vitro ADME. Conditions: 37 °C; for half-life at 100 µM: mouse serum (200 µL in 800 µL, diluted with water), 80 μL of 1 mM conjugate stock + 520 μL ultra-pure water + 200 μL mouse serum, methanol quench, centrifugation, intact PDC by HPLC (C18, 254 nm), mean ± SD, read-out: t1/2 of degradation in mouse serum (converted). The procedure: The in vitro stability experiment of the conjugates was conducted by co-incubation with mouse serum, as previously described, with minor modifications. An 80 μL of ^LT7-SS-DOX or ^DT7-SS-DOX stock solution (1 mM) was diluted by adding ultra-pure water (520 μL) and mouse serum (200 μL). The mixture was incubated at 37 °C, aliquots (100 μL) were taken at scheduled time intervals, and then methanol (300 μL) was added to terminate the incubation. After centrifugation at 10,000 rpm for 10 min, the intact PDC that remained in the supernatant was analyzed by HPLC.

Data set [3] relates to U87 cells. Nature of the data set: In vitro cytotoxicity, CCK-8 assay. Type of data set: cell-based, human. Conditions: for cell viability: 48 h, CCK-8; for IC50: U87, 48 h, CCK-8, mean ± SD (n = 3). The procedure:
(§1) Human HepG2 hepatocellular carcinoma cells and human U87 glioblastoma cells were purchased from Procell Life Science & Technology Co., Ltd. (Wuhan, China), human A549 lung carcinoma cells were obtained from the School of Basic Medical Sciences, Chengde Medical University, human LO2 normal hepatic cells were purchased from Jennio Biotech Co., Ltd. (Guangzhou, China). The cells were cultured in DMEM (HepG2), MEM containing 1% non-essential amino acids (U87), and RPMI-1640 (A549 and LO2), supplemented with 10% fetal bovine serum (FBS) and 1% penicillin/streptomycin at 37 °C in a humidified atmosphere with 5% CO2.
(§2) A549, HepG2, U87, and LO2 cells were each seeded in 96-well cell culture plates at a density of 6 × 10^3 cells per well and incubated at 37 °C for 24 h. Then, cells were treated with serial concentrations of free DOX or the peptide–DOX conjugates for 48 h. After incubation, CCK-8 (10 μL) was added to each well and incubated for an additional 2 h. The absorbance of each well was measured at 450 nm with a reference wavelength of 630 nm by using a Multiskan GO microplate reader (Thermo Fisher Scientific, Waltham, MA, USA). Data for each cell line treated with free DOX or PDCs were obtained from three independent experiments.
A general note: Tetrazolium assays rely on reduction of a dye to a coloured formazan, in cell work by metabolically active cells.

In data set [4] the test system is HepG2 cells. Nature of the data set: In vitro cytotoxicity, CCK-8 assay. To be noted: for cell viability: 48 h, CCK-8. Type of data set: cell-based, human. The procedure:
as §1, §2

The subject of data set [5] is A549 cells. The data set is described as follows: In vitro cytotoxicity, CCK-8 assay. The format is cell-based, human. To be noted: for cell viability: 48 h, CCK-8. As for the experimental part: as §1, §2
Data set [6] has as its system U87 cells. Nature of the data set: Confocal microscopy analysis of cellular uptake. The format is cell-based, human. As for the experimental part:
(§3) A549, HepG2, U87, or LO2 cells were seeded on glass coverslips (5 × 10^4 cells/well) in 24-well cell culture plates and incubated at 37 °C for 24 h. Then, cells were treated with the peptide–DOX conjugates (equivalent DOX concentration of 10 μM) for 4 and 12 h, respectively. Cells treated with free DOX (10 μM) for 4 h were used as the positive control. After the drugs in each well were discarded, cells were washed three times with PBS and fixed with 4% paraformaldehyde for 12 h. Cell nuclei were stained with DAPI for 8 min. The fluorescent images of cells were observed by using a confocal laser scanning microscope (Olympas FV3000).
(§4) After removal of the peptide solution, cells were washed three times with PBS and incubated with the ^DT7-SS-DOX conjugate (equivalent DOX concentration of 10 μM) for 4 h. Cell fixation, staining, and cellular uptake analysis by confocal microscopy were conducted as aforementioned methods.

Data set [7] has as its system HepG2 cells. The data set is described as follows: Confocal microscopy analysis of cellular uptake. Type of data set: cell-based, human. As for the experimental part: as §3, §4
Data set [8] has as its system A549 cells. Nature of the data set: Confocal microscopy analysis of cellular uptake. The format is cell-based, human. The procedure: as §3, §4
The test system of data set [9] is LO2 cells. The data set is described as follows: In vitro cytotoxicity, CCK-8 assay. Type of data set: cell-based, human. Conditions: LO2, 48 h, CCK-8, mean ± SD (n = 3). As for the experimental part: as §1, §2
Data set [10] relates to LO2 cells. The data set is described as follows: Confocal microscopy analysis of cellular uptake. The format is cell-based, human. To be noted: LO2, 10 μM, 4 h, confocal laser scanning microscopy. As for the experimental part: as §3
Setting [11] is: 5 mM GSH in acetonitrile-PBS (3:7, v/v), 100 μM conjugate, 1 h, HPLC, n = 3.
Setting [12] is: 5 mM GSH in acetonitrile-PBS (3:7, v/v), 100 μM conjugate, n = 3.

Like-named read-outs stand apart in the source and are kept apart here. Square brackets hold non-standard residues; d marks the D form. Peptide text beside a SMILES is read from it. * marks the point of attachment. X1 = COc1cccc2c1C(=O)c1c(O)c3c(c(O)c1C2=O)C[C@@](O)(C(=O)CO)C[C@@H]3O[C@H]1C[C@H](NC(=O)CCS*)[C@H](O)[C@H](C)O1

As to `CC[C@H](C)[C@H](NC(=O)[C@H](C)NC(=O)[C@H](Cc1c[nH]cn1)NC(=O)[C@@H](N)CSSCCC(=O)N[C@H]1C[C@H](O[C@H]2C[C@](O)(C(=O)CO)Cc3c(O)c4c(c(O)c32)C(=O)c2c(OC)cccc2C4=O)O[C@@H](C)[C@H]1O)C(=O)N[C@@H](Cc1ccc(O)cc1)C(=O)N1CCC[C@H]1C(=O)N[C@@H](CCCNC(=N)N)C(=O)N[C@@H](Cc1c[nH]cn1)C(=O)O` [^LT7-SS-DOX], the remaining at 1 h, 100 µM in data set [1] (5 μM GSH in acetonitrile-PBS (3:7, v/v), 100 μM conjugate, 1 h, HPLC, n = 3) was 93.7%. For the same compound, the conjugate remained undegraded result in data set [1] (setting [11]) is “completely degraded”. The “t1/2 of degradation in 5 mM GSH” value in [1] (setting [12]) is given as 0.26 ± 0.01 h. In [2] (80 μL of 1 mM stock + 520 μL water + 200 μL mouse serum, 1 h, HPLC), the “intact conjugate in mouse serum at 1 h” value was “almost entirely degraded”. Besides, the half-life at 100 µM in [2] is 0.37 ± 0.02 h. For the same compound, the cell viability in the data set on U87 cells [3] (U87, equal DOX concentration of 20 µM) amounted to 95.1%; in the data set with U87 cells [3] (U87, equal DOX concentration of 40 µM), 41.0%; in the data set on HepG2 cells [4] (HepG2, equal DOX concentration of 20 µM) it was 73.1%; in the data set on HepG2 cells [4] (HepG2, equal DOX concentration of 40 µM), 61.5%; in the data set with A549 cells [5] (A549, equal DOX concentration of 20 µM) it was 83.2%; in the data set on A549 cells [5] (A549, equal DOX concentration of 40 µM), 67.2%.
As for `CC[C@@H](C)[C@@H](NC(=O)[C@@H](Cc1ccc(O)cc1)NC(=O)[C@H]1CCCN1C(=O)[C@@H](CCCNC(=N)N)NC(=O)[C@H](N)Cc1c[nH]cn1)C(=O)N[C@H](C)C(=O)N[C@H](Cc1c[nH]cn1)C(=O)N[C@H](CSSCCC(=O)N[C@H]1C[C@H](O[C@H]2C[C@](O)(C(=O)CO)Cc3c(O)c4c(c(O)c32)C(=O)c2c(OC)cccc2C4=O)O[C@@H](C)[C@H]1O)C(=O)O` [^DT7-SS-DOX] (H-[dH][dR][dP][dY][dI][dA][dH][dC](X1)-OH), the remaining at 1 h, 100 µM in [1] (setting [11]) was found to be 72.1%. The “t1/2 of degradation in 5 mM GSH” value in data set [1] (setting [12]) is reported as 1.93 ± 0.13 h. Also, the “t1/2 in 5 mM GSH, times longer than that of ^LT7-SS-DOX” value in [1] (5 mM GSH) is approximately 8 times. In [2], the half-life at 100 µM was 8.58 ± 0.85 h. For the same compound, the “fluorescence intensity after pre-treatment with TfR affinity peptide versus without (TfR competitive inhibition assay)” value is listed as “lower” in the data set with U87 cells [6] (U87, pre-treated with TfR affinity peptide 100 μM 8 h, then conjugate at equivalent DOX 10 μM for 4 h); “lower” in the data set on HepG2 cells [7] (HepG2, pre-treated with TfR affinity peptide 100 μM 8 h, then conjugate at equivalent DOX 10 μM for 4 h); “lower” in the data set on A549 cells [8] (A549, pre-treated with TfR affinity peptide 100 μM 8 h, then conjugate at equivalent DOX 10 μM for 4 h). Besides, the IC50 was 5.7 ± 0.22 µM in the data set on U87 cells [3]; 7.01 ± 1.64 µM with HepG2 cells [4] (HepG2, 48 h, CCK-8, mean ± SD (n = 3)); 20.6 ± 4.81 µM in the data set on A549 cells [5] (A549, 48 h, CCK-8, mean ± SD (n = 3)); more than 100 µM in the data set with LO2 cells [9].
For the compound `COc1cccc2c1C(=O)c1c(O)c3c(c(O)c1C2=O)C[C@@](O)(C(=O)CO)C[C@@H]3O[C@H]1C[C@H](N)[C@H](O)[C@H](C)O1` [DOX, Doxorubicin], the “location of red (DOX) fluorescence in cells” value with U87 cells [6] (U87, 10 μM, 4 h, confocal laser scanning microscopy) is recorded as “located in the cell nuclei”; in the data set with HepG2 cells [7] (HepG2, 10 μM, 4 h, confocal laser scanning microscopy), “located in the cell nuclei”; in the data set on A549 cells [8] (A549, 10 μM, 4 h, confocal laser scanning microscopy) it was “located in the cell nuclei”; in the data set on LO2 cells [10], “located in the cell nuclei”. Also, the IC50 in the data set with U87 cells [3] stood at 1.65 ± 0.2 µM; in the data set on LO2 cells [9] it was 1.29 ± 0.18 µM.
